# Reference: patent publication US8936806B2, “Periostin induces proliferation of cardiomyocytes and promotes cardiac regeneration” (Children's Medical Center Corporation, priority 2007, dated 2015)
# “Also recorded” adds a separate entry of the source. Read-outs that look alike come from different tables or passages of the source.
# What was measured:
# [1] = tested on: primary adult rat ventricular cardiomyocytes; assay: DNA synthesis (BrdU uptake, immunofluorescence) in primary adult rat ventricular cardiomyocytes; assay type: cell-based; parameters: inhibition of periostin-stimulated DNA synthesis by integrin antibodies: dose or concentration left out as unconfirmed; details: for inhibition of periostin-induced DNA synthesis / cell-cycle reentry by kinase inhibitors / inhibition of neuregulin-induced cell-cycle reentry: PD98059 1 mM; for inhibition of periostin-induced DNA synthesis / cell-cycle reentry by kinase inhibitors: U0126 10 mM, LY294002 10 mM, SH-6 10 mM, Akt1/2 inhibitor 1 mM [sic]; for inhibition of neuregulin-induced cell-cycle reentry: U0126 10 mM as printed
# Source text: Primary neonatal rat ventricular cardiomyocytes were isolated using the Neomyts kit (Cellutron, Highland Park, N.J.), seeded at a density of 10^5 cells/cm^2 onto gelatin-coated cover slips, stimulated for 3 days, and labeled with BrdU for the terminal 2 days. Primary adult ventricular cardiomyocytes were isolated from male (300 gm) Wistar rats (Charles River Laboratories) and maintained as described (Engel, F. B. et al. p38 MAP kinase inhibition enables proliferation of adult mammalian cardiomyocytes. Genes Dev 19, 1175-87 (2005)). Adult cardiomyocytes were stimulated daily for 9 days and labeled with 30 μM BrdU for the terminal 3 days. Cardiomyocytes were stimulated with periostin (500 ng/mL) and FGF (100 ng/mL). […] The vehicle used to dissolve factors or chemicals was added to unstimulated samples, which were then processed together with the test samples. DNA-synthesis was analyzed by visualization of BrdU uptake and cytokinesis was determined by detection of the cleavage furrow and the midbody with an antibody against aurora B kinase as described (Engel, F. B. et al. p38 MAP kinase inhibition enables proliferation of adult mammalian cardiomyocytes. Genes Dev 19, 1175-87 (2005)). Signals were visualized with secondary antibodies conjugated to Alexa 488, Alexa 546, Alexa 594, and Alexa 647 (Invitrogen). […] For image acquisition, the value for γ was set at 1 and the lookup table settings were linear. Primary adult rat ventricular cardiomyocytes were grown on gridded cover slips (Electron Microscopy Services, Ft. Washington, Pa.) and imaged in phase contrast at 10× magnification. Cardiomyocytes were transduced with an adenovirus leading to nuclear expression of histone2B-GFP (Shi, Q. & King, R. W. Nature 437, 1038-42 (2005)) under control of the chicken troponin T promoter ([…]. Am J Physiol Cell Physiol 286, […]-64 (2004)). Nuclei were visualized at 10× magnification with a mercury-arc lamp dimmed to 1.5% with a neutral density filter. […] Images of BrdU-positive cardiomyocytes were matched with the corresponding images from before stimulation. For quantification, differentiated cardiomyocytes were defined as striated rod-shaped structures with length/width ratio>1.5.
# [2] = tested on: primary neonatal rat ventricular cardiomyocytes; assay: DNA synthesis, mitosis and cytokinesis in primary neonatal rat ventricular cardiomyocytes; assay type: cell-based; details: for inhibition of periostin-stimulated DNA synthesis by integrin blockers: cRGD 10 μM, antibodies 10 μg/mL; for induction of cardiomyocyte DNA synthesis: FIG. 2d, 2e
# Source text: Primary neonatal rat ventricular cardiomyocytes were isolated using the Neomyts kit (Cellutron, Highland Park, N.J.), seeded at a density of 10^5 cells/cm^2 onto gelatin-coated cover slips, stimulated for 3 days, and labeled with BrdU for the terminal 2 days. Primary adult ventricular cardiomyocytes were isolated from male (300 gm) Wistar rats (Charles River Laboratories) and maintained as described (Engel, F. B. et al. p38 MAP kinase inhibition enables proliferation of adult mammalian cardiomyocytes. Genes Dev 19, 1175-87 (2005)). Adult cardiomyocytes were stimulated daily for 9 days and labeled with 30 μM BrdU for the terminal 3 days. Cardiomyocytes were stimulated with periostin (500 ng/mL) and FGF (100 ng/mL). Inhibiting antibodies were added at a concentration of 10 μg/mL, cRGD at 10 μM, U0126 at 10 μM, PD98059 at 1 μM, LY294002 at 10 μM, and Wortmannin at 0.1 μM 30 min prior to stimulation. The vehicle used to dissolve factors or chemicals was added to unstimulated samples, which were then processed together with the test samples.
# DNA-synthesis was analyzed by visualization of BrdU uptake and cytokinesis was determined by detection of the cleavage furrow and the midbody with an antibody against aurora B kinase as described (Engel, F. B. et al. p38 MAP kinase inhibition enables proliferation of adult mammalian cardiomyocytes. Genes Dev 19, 1175-87 (2005)). Signals were visualized with secondary antibodies conjugated to Alexa 488, Alexa 546, Alexa 594, and Alexa 647 (Invitrogen). Nuclei were visualized with 4′,6′-diamidino-2-phenylindole (DAPI, Invitrogen). For image acquisition, the value for γ was set at 1 and the lookup table settings were linear.
# [3] = tested on: primary neonatal rat ventricular cardiomyocytes; assay: Cardiomyocyte proliferation by cell count (hemocytometer); assay type: cell-based; details: for inhibition of periostin-stimulated proliferation by integrin blockers: cRGD 10 μM, antibodies 10 μg/mL; for inhibition of periostin-stimulated proliferation by ERK and PI3-kinase inhibitors: U0126 10 μM, PD98059 1 μM, LY294002 10 μM, Wortmannin 0.1 μM
# Method: To determine cardiomyocyte proliferation, primary neonatal rat ventricular cardiomyocytes were quantified by counting with a hemocytometer after 3 days and 6 days of stimulation. To determine cardiomyocyte survival, primary neonatal rat ventricular cardiomyocytes were pre-treated with 500 ng/mL periostin or buffer for 30 min and then exposed to 0.5 μM doxycycline or 100 ng/mL TNFα for 24 hr and quantified by counting. Corresponding samples were stained with an antibody directed against tropomyosin as a cardiomyocyte marker to control for the percentage of differentiated cardiomyocytes. Apoptotic cardiomyocyte nuclei were determined after 24 hr with the In situ Cell Death Detection Kit (Roche, Indianapolis, Ind.) in combination with staining for troponin I.
# [4] = tested on: Adult male Sprague-Dawley rats; assay: Cardiomyocyte cell cycle activity in vivo after intramyocardial injection; parameters: species or system rat; LVFW CM nuclei: unit not given here
# Method: Experiments were performed in accordance with institutional guidelines of Massachusetts General Hospital. Injections and analyses were performed in a blinded fashion. Adult male Sprague-Dawley rats (300 gm, Charles River Laboratories) underwent thoracotomy and received intramyocardial injections of 50 μg of recombinant human periostin consisting of the fas1-4 domains, 50 μg of rat fibronectin, or 100 μL of 100 mM sodium acetate as a control (5 rats per group). The survival rate for this procedure was 80%. Injected periostin was confirmed by detection with a polyclonal antibody directed against human periostin (Abcam) and visualized by immunofluorescence microscopy. Intraperitoneal injections of BrdU (70 μmol/kg body weight) with a tissue half life of 2 hr were given every 48 hr, and rats were sacrificed after the third injection. Horizontal cryosections of 14 μm thickness spaced at 1 mm intervals were analyzed by laser scanning immunofluorescence microscopy. BrdU-positive cardiomyocyte nuclei and cytokineses were quantified on 16-20 sections per heart. Fibrosis and cardiomyocyte cross-sectional area were determined on 5 Masson's Trichrome-stained sections at the level of the injection at 40× magnification and quantified using the Metamorph software package (Molecular Devices Corp., Downingtown, Pa.).
# [5] = 1 week after intracardiac injection
# [6] = U0126 10 μM, PD98059 1 μM, LY294002 10 μM, Wortmannin 0.1 μM
molecule,measurement,setting,value
O.O=C(O)C(F)(F)F.O=c1[nH]c2ccccc2n1C1CCN(Cc2ccc(-c3nc4cc5[nH]cnc5cc4nc3-c3ccccc3)cc2)CC1 [Akt1/2 inhibitor],inhibition of periostin-induced DNA synthesis / cell-cycle reentry by kinase inhibitors,[1]; differentiated cardiomyocytes,reduced
"integrin αV antibody: integrin αV (RMV-7) blocking antibody, BioLegend",inhibition of periostin-stimulated DNA synthesis by integrin antibodies,[1]; differentiated cardiomyocytes,inhibited
same,inhibition of periostin-stimulated DNA synthesis by integrin blockers,[2],inhibited
same,inhibition of periostin-stimulated proliferation by integrin blockers,[3],inhibited
SH-6,inhibition of periostin-induced DNA synthesis / cell-cycle reentry by kinase inhibitors,[1]; differentiated cardiomyocytes,reduced
N#CC(=C(/N)Sc1ccccc1N)/C(C#N)=C(\N)Sc1ccccc1N [U0126],inhibition of neuregulin-induced cell-cycle reentry,[1]; differentiated cardiomyocytes,inhibited
same,inhibition of periostin-induced DNA synthesis / cell-cycle reentry by kinase inhibitors,[1]; differentiated cardiomyocytes,did not reduce; also recorded: did not block
same,inhibition of periostin-stimulated DNA synthesis by ERK and PI3-kinase inhibitors,[2],inhibited only by blocking Akt activation
same,inhibition of periostin-stimulated cytokinesis by ERK and PI3-kinase inhibitors,[2],inhibited
same,inhibition of periostin-stimulated proliferation by ERK and PI3-kinase inhibitors,[3],inhibited
C[S+]([O-])c1ccc(-c2nc(-c3ccncc3)c(-c3ccc(F)cc3)[nH]2)cc1 (stereo not shown) [SB203580],effect on periostin-induced cardiomyocyte DNA synthesis when added,"[1]; FGF 100 ng/ml, SB203580 5 mM or 10 mM as printed",no additional effect
Cyclic Arg-Gly-Asp [cRGD],inhibition of periostin-stimulated DNA synthesis by integrin blockers,[2],inhibited; also recorded: blocked
same,inhibition of periostin-stimulated proliferation by integrin blockers,[3],blocked
Fibronectin: Rat fibronectin from Biomedical Technologies; extracellular matrix component [reference compound],induction of cardiomyocyte DNA synthesis,[2],did not induce DNA synthesis
same,LVFW BrdU-positive CM nuclei,[4]; [5],0.002 ± 0.0004%
same,LVFW CM nuclei,[4]; [5],10.7 ± 0.4 10^$$ per heart
same,LVFW BrdU-positive CM nuclei,"[4]; 1 week after intracardiac injection, 3 BrdU injections",273.6 ± 42.8 per heart
same,LVFW myocardial volume,"[4]; 1 week after intracardiac injection, 50 μg periostin (fas1-4 domains) or 50 μg rat fibronectin",224 ± 6 mm^3
same,cardiomyocyte DNA synthesis in vivo,[4]; FIG. 4c,did not increase
same,cardiomyocyte cytokinesis in vivo,[4]; FIG. 4d,did not increase
"collagen: type 1 rat collagen, extracellular matrix component known to activate integrins",induction of cardiomyocyte DNA synthesis,[2],did not induce DNA synthesis
COc1cccc(-c2cc(=O)c3ccccc3o2)c1N [PD98059],inhibition of neuregulin-induced cell-cycle reentry,[1]; differentiated cardiomyocytes,inhibited
same,inhibition of periostin-induced DNA synthesis / cell-cycle reentry by kinase inhibitors,[1]; differentiated cardiomyocytes,did not reduce; also recorded: did not block
same,inhibition of periostin-stimulated DNA synthesis by ERK and PI3-kinase inhibitors,[2]; [6],inhibited only by blocking Akt activation
same,inhibition of periostin-stimulated cytokinesis by ERK and PI3-kinase inhibitors,[2]; [6],inhibited
same,inhibition of periostin-stimulated proliferation by ERK and PI3-kinase inhibitors,[3],inhibited
"variant consisting of the 4 fas1 domains: periostin derivative consisting of 4 fas1 domains, purified from bacteria, molecular weight of 75 kDa (protein) NNHYDKILAHSRIRGRDQGPNVCALQQILGTKKKYFSTCKNWYKKSICGQKTTVLYECCPGYMRMEGMKGCPAVLPIDHVYGTLGIVGATTTQRYSDASKLREEIEGKGSFTYFAPSNEAWDNLDSDIRRGLESNVNVELLNALHSHMINKRMLTKDLKNGMIIPSMYNNLGLFINHYPNGVVTVNCARIIHGNQIATNGVVHVIDRVLTQIGTSIQDFIEAEDDLSSFRAAAITSDILEALGRDGHFTLFAPTNEAFEKLPRGVLERFMGDKVASEALMKYHILNTLQCSESIMGGAVFETLEGNTIEIGCDGDSITVNGIKMVNKKDIVTNNGVIHLIDQVLIPDSAKQVIELAGKQQTTFTDLVAQLGLASALRPDGEYTLLAPVNNAFSDDTLSMVQRLLKLILQNHILKVKVGLNELYNGQILETIGGKQLRVFVYRTAVCIENSCMEKGSKQGRNGAIHIFREIIKPAEKSLHEKLKQDKRFSTFLSLLEAADLKELLTQPGDWTLFVPTNDAFKGMTSEEKEILIRDKNALQNIILYHLTPGVFIGKGFEPGVTNILKTTQGSKIFLKEVNDTLLVNELKSKESDIMTTNGVIHVVDKLLYPADTPVGNDQLLEILNKLIKYIQIKFVRGSTFKEIPVTVY",induction of cardiomyocyte DNA synthesis,[2],stimulated DNA synthesis as effectively as FGF
"boiled periostin: boiled periostin used in control experiments to rule out a non-protein impurity (protein, UniProt Q15063 22-836, looked up, heat-denatured, boiled periostin used in control experiments to rule out a non-protein impurity) Periostin: NNHYDKILAHSRIRGRDQGPNVCALQQILGTKKKYFSTCKNWYKKSICGQKTTVLYECCPGYMRMEGMKGCPAVLPIDHVYGTLGIVGATTTQRYSDASKLREEIEGKGSFTYFAPSNEAWDNLDSDIRRGLESNVNVELLNALHSHMINKRMLTKDLKNGMIIPSMYNNLGLFINHYPNGVVTVNCARIIHGNQIATNGVVHVIDRVLTQIGTSIQDFIEAEDDLSSFRAAAITSDILEALGRDGHFTLFAPTNEAFEKLPRGVLERIMGDKVASEALMKYHILNTLQCSESIMGGAVFETLEGNTIEIGCDGDSITVNGIKMVNKKDIVTNNGVIHLIDQVLIPDSAKQVIELAGKQQTTFTDLVAQLGLASALRPDGEYTLLAPVNNAFSDDTLSMDQRLLKLILQNHILKVKVGLNELYNGQILETIGGKQLRVFVYRTAVCIENSCMEKGSKQGRNGAIHIFREIIKPAEKSLHEKLKQDKRFSTFLSLLEAADLKELLTQPGDWTLFVPTNDAFKGMTSEEKEILIRDKNALQNIILYHLTPGVFIGKGFEPGVTNILKTTQGSKIFLKEVNDTLLVNELKSKESDIMTTNGVIHVVDKLLYPADTPVGNDQLLEILNKLIKYIQIKFVRGSTFKEIPVTVYTTKIITKVVEPKIKVIEGSLQPIIKTEGPTLTKVKIEGEPEFRLIKEGETITEVIHGEPIIKKYTKIIDGVPVEITEKETREERIITGPEIKYTRISTGGGETEETLKKLLQEEVTKVTKFIEGGDGHLFEDEEIKRLLQGDTPVRKLQANKKVQGSRRRLREGRSQ",activation of the cardiomyocyte cell cycle,[2]; control for non-protein impurity,did not activate
